{
  "source": "patent US6331555A",
  "about": "“Treatment of platelet derived growth factor related disorders such as cancers” (priority 1999, dated 2001)",
  "key": {"spleen cells": {"system": "spleen cells", "assay": "Normal immune function in mice responding to a primary immunization", "assay_type": "in vivo, mouse", "details": "20 mg/kg/day", "description": "At the indicated times, animals were sacrificed, and the spleens were aseptically removed and placed into sterile medium. Spleens were processed into single cell suspensions by grinding between sterile frosted glass microscope slides. After a single wash to remove tissue debris, the spleen cells were resuspended in a hypotonic ammonium chloride buffer to lyse erythrocytes. Lymphocytes were washed and resuspended to the appropriate concentrations in complete medium, consisting of RPMI plus 10% heat-inactivated FBS, 2 mM glutamine, 50 μM β-mercaptoethanol, and penicillin-streptomycin. The responses of the lymphocytes were examined in the following assays according to accepted procedures (Current Protocols in Immunology. Coligan, J. E., Kruisbeek, A. M., Margulies, D. H., Shevach, E. M., Strober, W. (eds.) John Wiley and Sons, Inc., 1992).\nThe T-cell mitogen, ConA, and the T-cell independent B-cell mitogen, LPS, were added to 96-well round-bottom wells at the indicated concentrations. Lymphocytes from normal, vehicle-dosed, and drug-dosed animals were added at a final concentration of 2.5×10^5 /well. Cultures were usually set up in triplicate or quadruplicate. The plates were incubated at 37° C. in a humidified atmosphere containing 5% CO2 for the indicated times. Supernatants (approximately 100 μL) were carefully removed from the wells and stored at -80° C. for lymphokine and immunoglobulin analyses. To measure proliferation of the lymphocytes, 1 μCi of ^3 H-thymidine was added to each well, and the plates were incubated for 6 hr. The cultures were harvested onto glass fiber filters, and the incorporated radioactivity was quantitated by liquid scintillation counting (Betaplate, Wallac).\nLymphocytes from normal, vehicle-dosed, and drug-dosed animals were plated at 2.5×10^5 /well in round-bottom 96-well plates. Stimulator cells were then added at the same cell concentration. […] The plates were incubated for 3 to 4 days, at which time supernatants were harvested and the cultures were pulsed as described for the mitogen assays.\nSupernatants from mitogen and MLR cultures were assayed for IL-2 and IL-6 content by the ability to support the growth of factor-dependent cell lines. HT-2 cells (10^4 /well, IL-2-dependent) and 7TD1 cells (2×10^3 /well, IL-6-dependent) were plated in 96-well flat-bottom plates, in 50 μL/well. Supernatants were added in 50 μL/well, and the plates were incubated overnight (HT-2) or four days (7TD1). Cellular proliferation was determined in the MTT colorimetric assay (Appendix 3.1).\nFlat bottom 96-well EIA plates were coated with goat anti-mouse Ig antibodies (Southern Biotechnology) overnight at 4° C. The plates were blocked by the addition of PBS+1% BSA. After washing with PBS, supernatants from murine mitogen and MLR cultures were added and incubated at room temperature for 1 hr. The plates were washed with PBS, then HRP-labeled goat anti-mouse Ig antibodies were added and incubated at room temperature for 1 hr. The plates were washed and developed by the addition of substrate (ABTS).\nBALB/c mice were immunized SC with 50 μg keyhole limpet hemocyanin (KLH) suspended in complete Freund's adjuvant (CFA); control mice were mock-immunized with an emulsion of phosphate-buffered saline (PBS) in CFA. […] On day 14, all mice were sacrificed, and their spleen cells were assayed. In addition , immune e responses to KLH and tetanus toxoid were measured as described in Appendix 5."}, "PDGF-R": {"system": "PDGF-R", "assay": "PDGF-BB-stimulated PDGF-R autophosphorylation, C6 cells, western blot", "assay_type": "cell-based, rat", "parameters": "PDGF stimulated receptor phosphorylation: dose or concentration left out as unconfirmed", "procedure": "For western blotting, cells were plated in 2 mL growth medium into 6-well dishes (500,000 cells per well) and allowed to attach overnight. The medium was replaced with 2 mL MCDB 105 (UCSF Cell Culture Facility) supplemented with 1% FBS. The plates were then incubated overnight at 37° C., ambient CO2. […] After a 7 min incubation at room temperature with ligand, the plates were put on ice and washed three times with 1 mL ice-cold PBS plus 1 mM orthovanadate. Lysis was achieved by pipetting cells in 0.5 mL of buffer containing 50 mM Tris, pH 7.4, 10% glycerol, 1% NP-40, 2 mM EDTA, 1 mM sodium vanadate (Na3 VO4), 10 mM pyrophosphate, 1 mM PMSF, 10 mg/mL aprotinin, 10 mg/mL leupeptin. […] The integrity of the protein-to-membrane transfer was determined by staining with 1% Ponceau S in 5% acetic acid for 5 min. […] Phosphotyresine was detected by incubating the membrane (1 hr at room temperature) with an anti-phosphotyosine antiserum diluted in blocking buffer at 1:3000. […]\nProteins were then separated by SDS-polyacrylamide gel electrophoresis (PAGE). […] The level of phosphorylated tyrosine was determined by quantitating the amount of bound anti-phosphotyrosine. Quantitation was carried out by peak area integration using a Molecular Dynamics Computing Densitometer (Model 300S), and Image Quant v3.0 software (Molecule Dynamics). […]"}, "U87MG cells": {"system": "U87MG cells", "assay": "Intracerebral U87MG tumor, athymic mice, survival", "assay_type": "in vivo, human", "details": "IC U87MG; control 60 days; P=0.15"}},
  "data": [
    {"smiles": "Cc1oncc1C(=O)Nc1ccc(C(F)(F)F)cc1", "note": "[Compound A10, 5-methylisoxazole-4 carboxylic acid-(4-trifluromethyl)-anilide]", "values": [
      {"measurement": "IL-2 production", "setting": "spleen cells; Allo", "result": 0},
      {"measurement": "IL-6 production", "setting": "spleen cells; Allo", "result": 0},
      {"measurement": "Ig production", "setting": "spleen cells; Allo", "result": 0},
      {"measurement": "IL-2 production", "setting": "spleen cells; ConA", "result": 0},
      {"measurement": "IL-6 production", "setting": "spleen cells; ConA", "result": 0},
      {"measurement": "Ig production", "setting": "spleen cells; ConA", "result": 0},
      {"measurement": "IL-2 production", "setting": "spleen cells; KLH", "result": 0},
      {"measurement": "IL-6 production", "setting": "spleen cells; KLH", "result": 0},
      {"measurement": "Ig production", "setting": "spleen cells; KLH", "result": 0},
      {"measurement": "IL-2 production", "setting": "spleen cells; LPS", "result": 0},
      {"measurement": "IL-6 production", "setting": "spleen cells; LPS", "result": 0},
      {"measurement": "Ig production", "setting": "spleen cells; LPS", "result": 0},
      {"measurement": "reduction of PDGF-R phosphorylation", "setting": "PDGF-R; 200 mM A10, 20 ng/ml PDGF-BB", "result": "reduced PDGF-R phosphorylation below that occurring in the absence of PDGF-BB stimulation"},
      {"measurement": "PDGF stimulated receptor phosphorylation", "setting": "PDGF-R; increasing concentrations (50, 100)", "result": "reduced PDGF stimulated receptor phosphorylation"},
      {"measurement": "mean survival", "setting": "U87MG cells", "result": 65, "unit": "days"}
    ]}
  ]
}
